Reference: patent US20240270701A1, “BETA ADRENERGIC AGONIST AND METHODS OF USING THE SAME” (Curasen Therapeutics, Inc., priority 2021, published 2024)
Where two headings read alike, the source gives them in different places.

Key:
B1-AR = target: T1, B1-AR (Homo sapiens, UniProt P08588); assay: cAMP Gs dynamic HTRF assay, cells expressing beta-adrenergic receptor (CHO-K1), B1-AR; assay type: cell-based; conditions: for EC50: cAMP HTRF, read-out: pEC50 [B1-AR] (converted); for Emax: relative to full agonist isoproterenol, read-out: Emax (% iso) (%) [B1-AR]
T1 construct: expressed in transfected cells; host or cells: CHO-K1
T1 sequence (P08588 whole entry, species assumed): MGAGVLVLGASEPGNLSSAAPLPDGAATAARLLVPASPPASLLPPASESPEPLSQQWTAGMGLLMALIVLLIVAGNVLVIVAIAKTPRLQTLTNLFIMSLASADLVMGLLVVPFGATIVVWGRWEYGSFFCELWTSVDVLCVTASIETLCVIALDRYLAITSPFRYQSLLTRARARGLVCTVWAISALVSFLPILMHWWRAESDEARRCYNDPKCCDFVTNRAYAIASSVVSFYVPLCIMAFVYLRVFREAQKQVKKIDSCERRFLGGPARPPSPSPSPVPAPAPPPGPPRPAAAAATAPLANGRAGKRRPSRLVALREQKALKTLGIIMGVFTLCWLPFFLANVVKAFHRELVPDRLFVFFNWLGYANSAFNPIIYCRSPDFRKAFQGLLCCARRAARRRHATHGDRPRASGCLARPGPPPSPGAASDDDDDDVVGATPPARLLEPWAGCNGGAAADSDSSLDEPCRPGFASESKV
Protocol: (§1) cAMP homogeneous time-resolved fluorescence (HTRF): experimental methods. Compound efficacy is determined using the cAMP Gs dynamic HTRF assay (Cisbio, catalog #62AM4PEC) largely following the manufacturer's instructions, also detailed below.
(§2) Standard serial dilution curves are 10-point, 5-fold dilutions starting from a highest concentration of 10 μM. Controls present on every assay plate are 0.1% DMSO (vehicle control), 1 μM isoproterenol (full beta-adrenergic agonist control) and […] xamoterol (partial beta-adrenergic agonist control). […] Assay plates are centrifuged at 500×g for 10 seconds. Compounds and IBMX are prepared at 2× final dose to compensate for addition of cells.
(§3) Cell preparation: 1× stimulation buffer, washing PBS (Dulbecco's phosphate-buffered saline, − Mg − Ca; Caisson Labs, catalog #PBL01), assay PBS (Dulbecco's phosphate-buffered saline, + Mg, + Ca; Caisson Labs, catalog #PBL02) and Versene (0.02% EDTA disodium salt solution in PBS without calcium or magnesium; Caisson Labs, catalog #EDL01) are pre-warmed to 37° C. Cells expressing beta-adrenergic receptor were washed in washing PBS to remove growth medium and then released from the surface by incubating with Versene for 5-10 minutes at 37° C. Cells are harvested using assay PBS, counted manually by hemocytometer or by an automated cell counter, pelleted by centrifugation (200×g, 5 minutes) and resuspended in 37° C. 1× stimulation buffer to a final density of 1.5×10^6 cells/mL. 5 μL of the suspended cell solution (7500 cell total) are added to all wells of the 384 well assay plate, the assay plate was covered with an Axygen® plate seal (Corning PCR-SP) and incubated in a humidified 37° C. environment supplemented with 5% CO2 for 30 minutes.
(§4) HTRF reagent addition, reading and data analysis: After 30 minutes of cell stimulation with test compound, the assay plates are centrifuged at 500×g for 10 seconds, and incubation was stopped with the addition of 5 μL cAMP-D2 acceptor, diluted 1:21 in detection and lysis buffer 2 (Cisbio 62CL2FDF) was added to all cells. Subsequently, 5 μL Anti-cAMP-Eu Donor, diluted 1:21 in detection and lysis buffer 2, was added to cells. Plates were sealed and reactions gently ‘vortexed’ at 900 rpm on a Heidolph Titramax 1000 for at least 30 minutes at room temperature. Plates are centrifuged again at 500×g for 10 seconds, and HTRF was measured using a Tecan Spark plate reader at 50 flashes per well. […] Potency estimates (EC50 and pEC50) are derived from the four-parameter nonlinear regression of the concentration-effect curve and an estimate of relative efficacy is determined by comparing the magnitude of the test compound HTRF signal window (min−max dose) with the signal window of the full agonist control, isoproterenol.

B2-AR = target: T2, B2-AR (Homo sapiens, UniProt P07550); assay: cAMP Gs dynamic HTRF assay, cells expressing beta-adrenergic receptor (CHO-K1), B2-AR; assay type: cell-based; conditions: for EC50: cAMP HTRF, read-out: pEC50 [B2-AR] (converted); for Emax: relative to full agonist isoproterenol, read-out: Emax (% iso) (%) [B2-AR]
T2 construct: expressed in transfected cells; host or cells: CHO-K1
T2 sequence (P07550 whole entry, species assumed): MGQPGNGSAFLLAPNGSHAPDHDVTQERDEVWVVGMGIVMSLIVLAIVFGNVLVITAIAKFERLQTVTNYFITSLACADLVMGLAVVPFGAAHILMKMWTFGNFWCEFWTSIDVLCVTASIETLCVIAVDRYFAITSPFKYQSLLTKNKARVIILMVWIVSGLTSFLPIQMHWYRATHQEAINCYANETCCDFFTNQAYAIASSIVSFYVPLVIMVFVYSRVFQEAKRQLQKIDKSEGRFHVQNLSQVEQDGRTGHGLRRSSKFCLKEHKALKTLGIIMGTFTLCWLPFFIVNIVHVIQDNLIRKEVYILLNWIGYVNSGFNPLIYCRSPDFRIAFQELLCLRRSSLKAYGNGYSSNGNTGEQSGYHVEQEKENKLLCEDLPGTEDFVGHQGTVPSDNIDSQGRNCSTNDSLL
Protocol: as §1, §2, §3, §4

Row | Structure (SMILES) | EC50 (B1-AR) | Emax (B1-AR) | EC50 (B2-AR; CHO-K1 cells) | Emax (B2-AR; CHO-K1 cells) | Emax (B2-AR; CHO-K1, CHO-K1 cells)
1 | Cn1c(=O)[nH]c2cccc([C@@H](O)CNC(C)(C)C)c21 [I-93] | > 1000 nM | 70 to 90% | > 1000 nM | > 90% | 
2 | CC(C)(C)NC[C@H](O)c1cccc2[nH]c(=O)[nH]c12 [I-94] | 100 to 1000 nM | 70 to 90% | 100 to 1000 nM | 70 to 90% | 
3 | CC(C)(C)NC[C@H](O)c1cccc2[nH]nc(C(N)=O)c12 [I-95] | 100 to 1000 nM | 70 to 90% | 100 to 1000 nM | 50 to 70% | 
4 | CC1(NC[C@H](O)c2cccc3[nH]nc(Cl)c23)CCC1 [I-96] | < 10 nM | 70 to 90% | < 10 nM | > 90% | 
5 | O[C@@H](CNC1CCC1)c1cccc2[nH]nc(Cl)c12 [I-97] | 10 to 100 nM | 70 to 90% | < 10 nM | > 90% | 
6 | O[C@@H](CNC1CC1)c1cccc2[nH]nc(Cl)c12 [I-98] | 10 to 100 nM | 70 to 90% | < 10 nM | 70 to 90% | 
7 | CC(C)CNC[C@H](O)c1cccc2[nH]nc(Cl)c12 [I-99] | 100 to 1000 nM | 70 to 90% | 10 to 100 nM | 70 to 90% | 
8 | CC1(NC[C@H](O)c2cccc3[nH]nc(Cl)c23)CC1 [I-100] | < 10 nM | 70 to 90% | < 10 nM |  | > 90%
9 | CC(C)NC[C@H](O)c1cccc2[nH]nc(Cl)c12 [I-101] | < 10 nM | > 90% | < 10 nM | > 90% | 
10 | CC(C)(C)NC[C@H](O)c1ccc(OC(F)F)c2[nH]ncc12 [I-102] | 100 to 1000 nM | 50 to 70% | < 10 nM |  | < 50%
11 | CC(C)(C)NC[C@H](O)c1cc(C2CC2)cc2[nH]ncc12 [I-103] | > 1000 nM | 50 to 70% | 10 to 100 nM |  | 50 to 70%
12 | CC(C)c1cc([C@@H](O)CNC(C)(C)C)c2cn[nH]c2c1 [I-104] | > 1000 nM | 70 to 90% | 100 to 1000 nM |  | 70 to 90%
13 | CCc1cc([C@@H](O)CNC(C)(C)C)c2cn[nH]c2c1 [I-105] | > 1000 nM | < 50% | 100 to 1000 nM |  | < 50%
14 | CC(C)(C)NC[C@H](O)c1cc(OC(F)F)cc2[nH]ncc12 [I-106] | 100 to 1000 nM | 70 to 90% | 10 to 100 nM |  | 50 to 70%
15 | CC1(NC[C@H](O)c2cccc3[nH]cc(F)c23)CC1 [I-107] | < 10 nM | > 90% | < 10 nM |  | > 90%
16 | O[C@@H](CNC1CC1)c1cccc2[nH]cc(F)c12 [I-108] | 10 to 100 nM | > 90% | 10 to 100 nM |  | > 90%
17 | CC(C)(CO)NC[C@H](O)c1cccc2[nH]cc(F)c12 [I-109] | 10 to 100 nM | > 90% | 10 to 100 nM | > 90% | 
18 | CC1(NC[C@H](O)c2cccc3[nH]cc(F)c23)CCC1 [I-110] | < 10 nM | > 90% | < 10 nM |  | > 90%
19 | CC(C)CNC[C@H](O)c1cccc2[nH]cc(F)c12 [I-111] | 10 to 100 nM | > 90% | 10 to 100 nM |  | 70 to 90%
20 | CC(C)NC[C@H](O)c1cccc2[nH]cc(F)c12 [I-112] | < 10 nM | > 90% | < 10 nM |  | > 90%
21 | O[C@@H](CNC1CCC1)c1cccc2[nH]cc(F)c12 [I-113] | < 10 nM | > 90% | 10 to 100 nM |  | > 90%
22 | CC(C)(C)NC[C@H](O)c1cccc2[nH]nc(Cl)c12 [I-114] | < 10 nM | > 90% | < 10 nM |  | > 90%
23 | Cc1c(Cl)[nH]c2cccc([C@@H](O)CNC(C)(C)C)c12 [I-115] | > 1000 nM | 70 to 90% | 100 to 1000 nM |  | 70 to 90%
24 | CC(C)(CO)NC[C@H](O)c1ccc(Cl)c2[nH]ncc12 [I-116] | 10 to 100 nM | 70 to 90% | < 10 nM |  | 70 to 90%

Row | Structure (SMILES) | EC50 (B1-AR) | Emax (B1-AR) | EC50 (B2-AR; CHO-K1 cells) | Emax (B2-AR; CHO-K1 cells) | Emax (B2-AR; CHO-K1, CHO-K1 cells)
25 | CC(C)CNC[C@H](O)c1ccc(Cl)c2[nH]ncc12 [I-117] | 10 to 100 nM | 50 to 70% | 10 to 100 nM | 70 to 90% | 
26 | CC1(NC[C@H](O)c2ccc(Cl)c3[nH]ncc23)CCC1 [I-118] | < 10 nM | 70 to 90% | < 10 nM |  | 70 to 90%
27 | O[C@@H](CNC1CCC1)c1ccc(Cl)c2[nH]ncc12 [I-119] | < 10 nM | 70 to 90% | < 10 nM | 70 to 90% | 
28 | CC1(NC[C@H](O)c2ccc(Cl)c3[nH]ncc23)CC1 [I-120] | < 10 nM | 70 to 90% | < 10 nM |  | 70 to 90%
29 | O[C@@H](CNC1CC1)c1ccc(Cl)c2[nH]ncc12 [I-121] | < 10 nM | 50 to 70% | < 10 nM |  | 70 to 90%
30 | CC(C)NC[C@H](O)c1ccc(Cl)c2[nH]ncc12 [I-122] | < 10 nM | 70 to 90% | < 10 nM |  | 70 to 90%
31 | CC(C)(C)NC[C@H](O)c1cc(C(F)F)cc2[nH]ncc12 [I-123] | > 1000 nM | 70 to 90% | 100 to 1000 nM |  | 70 to 90%
32 | CC(C)CNC[C@H](O)c1ccc2[nH]cc(F)c2c1 [I-124] | > 1000 nM | 70 to 90% | 100 to 1000 nM |  | > 90%
33 | CC(C)(C)NC[C@H](O)c1cccc2[nH]nc(C3CC3)c12 [I-125] | 100 to 1000 nM | 70 to 90% | 100 to 1000 nM | 70 to 90% | 
34 | CC1(NC[C@H](O)c2cccc3[nH]nc(F)c23)CC1 [I-126] | < 10 nM | 70 to 90% | < 10 nM |  | > 90%
35 | O[C@@H](CNC1CCC1)c1cccc2[nH]ncc12 [I-127] | < 10 nM | > 90% | < 10 nM |  | > 90%
36 | CC1(NC[C@H](O)c2cccc3[nH]ncc23)CCC1 [I-128] | < 10 nM | > 90% | < 10 nM | > 90% | 
37 | CC1(NC[C@H](O)c2cccc3[nH]ncc23)CC1 [I-129] | < 10 nM | > 90% | < 10 nM | > 90% | 
38 | CC1(NC[C@H](O)c2cccc3[nH]nc(F)c23)CCC1 [I-130] | < 10 nM | > 90% | < 10 nM | > 90% | 
39 | CC(C)(C)NC[C@H](O)c1cc(F)cc2[nH]cnc12 [I-131] | 10 to 100 nM | > 90% | 10 to 100 nM |  | 70 to 90%
40 | CC(C)(CO)NC[C@H](O)c1cccc2[nH]nc(F)c12 [I-132] | < 10 nM | > 90% | < 10 nM |  | > 90%
41 | CC(C)CNC[C@H](O)c1cccc2[nH]ncc12 [I-133] | 10 to 100 nM | 70 to 90% | < 10 nM |  | > 90%
42 | O[C@@H](CNC1CC1)c1cccc2[nH]ncc12 [I-134] | < 10 nM | 70 to 90% | < 10 nM | > 90% | 
43 | Cc1cc([C@@H](O)CNC2CC2)c2cn[nH]c2c1 [I-135] | < 10 nM | 70 to 90% | < 10 nM | 70 to 90% | 
44 | Cc1cc([C@@H](O)CNC2CCC2)c2cn[nH]c2c1 [I-136] | < 10 nM | > 90% | < 10 nM |  | > 90%
45 | O[C@@H](CNC1CCC1)c1ccc(F)c2[nH]ncc12 [I-137] | < 10 nM | 70 to 90% | < 10 nM | > 90% | 
46 | CC(C)CNC[C@H](O)c1cccc2[nH]nc(F)c12 [I-138] | 10 to 100 nM | 70 to 90% | < 10 nM | > 90% | 
47 | CC(C)NC[C@H](O)c1cccc2[nH]nc(F)c12 [I-139] | < 10 nM | > 90% | < 10 nM | > 90% | 
48 | O[C@@H](CNC1CC1)c1cccc2[nH]nc(F)c12 [I-140] | < 10 nM | > 90% | < 10 nM | > 90% | 
